Measurements taken from patent US11358949B2, “Carbamate and urea compounds as multikinase inhibitors” (ANGEX PHARMACEUTICAL, INC., priority 2017, dated 2022).

Assays:
TYRO3/SKY = molecular target: T1, TYRO3/SKY (Homo sapiens, UniProt Q06418); assay: HotSpot Kinase Assay, TYRO3/SKY
T1 sequence (Q06418 41-890): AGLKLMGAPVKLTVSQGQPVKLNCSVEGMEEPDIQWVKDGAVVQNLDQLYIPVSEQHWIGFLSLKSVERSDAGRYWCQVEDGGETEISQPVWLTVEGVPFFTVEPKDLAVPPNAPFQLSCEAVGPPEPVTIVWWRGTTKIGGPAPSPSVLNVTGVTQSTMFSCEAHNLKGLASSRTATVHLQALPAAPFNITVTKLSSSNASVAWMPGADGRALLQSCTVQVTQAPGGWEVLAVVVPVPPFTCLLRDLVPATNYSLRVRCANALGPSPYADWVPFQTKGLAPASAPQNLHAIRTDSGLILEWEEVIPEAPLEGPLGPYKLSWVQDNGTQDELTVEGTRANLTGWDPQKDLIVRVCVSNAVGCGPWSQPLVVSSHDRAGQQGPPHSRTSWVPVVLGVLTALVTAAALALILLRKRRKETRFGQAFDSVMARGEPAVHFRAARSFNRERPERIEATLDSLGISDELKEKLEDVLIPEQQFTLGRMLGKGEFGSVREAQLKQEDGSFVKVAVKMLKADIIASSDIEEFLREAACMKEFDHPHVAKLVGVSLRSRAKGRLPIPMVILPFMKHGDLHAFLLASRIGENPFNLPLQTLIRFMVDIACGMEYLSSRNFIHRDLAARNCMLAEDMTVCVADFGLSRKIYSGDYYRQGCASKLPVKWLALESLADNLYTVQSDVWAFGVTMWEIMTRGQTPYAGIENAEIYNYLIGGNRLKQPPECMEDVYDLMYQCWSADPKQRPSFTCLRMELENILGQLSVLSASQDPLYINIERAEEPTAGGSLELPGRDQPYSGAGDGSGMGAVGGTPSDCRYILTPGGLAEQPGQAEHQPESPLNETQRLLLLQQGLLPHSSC
Experimental: (§1) Specifically, for each reaction, kinase and substrate were mixed in a pH 7.5 buffer containing 20 mM HEPES, 10 mM MgCl2, 1 mM EGTA [Ethylene glycol-bis(2-aminoethylether)-N,N,N′,N′-tetraacetic acid], 0.02% Brij35, 0.02 mg/mL BSA (Bovine Serum Albumin), 0.1 mM Na3VO4, 2 mM DTT, and 1% DMSO. Compounds were then added to each reaction mixture. After a 20-min incubation, ATP (Sigma-Aldrich) and [γ-^33P] ATP (PerkinElmer) were added at a final total concentration of 100 μM. Reactions were carried out at room temperature for 2 hours and spotted onto P81 ion exchange cellulose chromatography paper (Whatman). […] The percent remaining kinase activity relative to a vehicle-containing (DMSO) kinase reaction was calculated for each kinase/inhibitor pair. […] IC50 values were calculated using Prism 5 (GraphPad).

DDR1 = DDR1 (Homo sapiens, UniProt Q08345); assay: HotSpot Kinase Assay, DDR1
Experimental: as §1

LOK/STK10 = LOK/STK10 (Homo sapiens, UniProt O94804); assay: HotSpot Kinase Assay, LOK/STK10
Experimental: as §1

c-MET = c-MET (Homo sapiens, UniProt P08581); assay: HotSpot Kinase Assay, c-MET
Experimental: as §1

c-MER = molecular target: T2, c-MER (Homo sapiens, UniProt Q12866); assay: HotSpot Kinase Assay, c-MER
T2 sequence (Q12866 21-999): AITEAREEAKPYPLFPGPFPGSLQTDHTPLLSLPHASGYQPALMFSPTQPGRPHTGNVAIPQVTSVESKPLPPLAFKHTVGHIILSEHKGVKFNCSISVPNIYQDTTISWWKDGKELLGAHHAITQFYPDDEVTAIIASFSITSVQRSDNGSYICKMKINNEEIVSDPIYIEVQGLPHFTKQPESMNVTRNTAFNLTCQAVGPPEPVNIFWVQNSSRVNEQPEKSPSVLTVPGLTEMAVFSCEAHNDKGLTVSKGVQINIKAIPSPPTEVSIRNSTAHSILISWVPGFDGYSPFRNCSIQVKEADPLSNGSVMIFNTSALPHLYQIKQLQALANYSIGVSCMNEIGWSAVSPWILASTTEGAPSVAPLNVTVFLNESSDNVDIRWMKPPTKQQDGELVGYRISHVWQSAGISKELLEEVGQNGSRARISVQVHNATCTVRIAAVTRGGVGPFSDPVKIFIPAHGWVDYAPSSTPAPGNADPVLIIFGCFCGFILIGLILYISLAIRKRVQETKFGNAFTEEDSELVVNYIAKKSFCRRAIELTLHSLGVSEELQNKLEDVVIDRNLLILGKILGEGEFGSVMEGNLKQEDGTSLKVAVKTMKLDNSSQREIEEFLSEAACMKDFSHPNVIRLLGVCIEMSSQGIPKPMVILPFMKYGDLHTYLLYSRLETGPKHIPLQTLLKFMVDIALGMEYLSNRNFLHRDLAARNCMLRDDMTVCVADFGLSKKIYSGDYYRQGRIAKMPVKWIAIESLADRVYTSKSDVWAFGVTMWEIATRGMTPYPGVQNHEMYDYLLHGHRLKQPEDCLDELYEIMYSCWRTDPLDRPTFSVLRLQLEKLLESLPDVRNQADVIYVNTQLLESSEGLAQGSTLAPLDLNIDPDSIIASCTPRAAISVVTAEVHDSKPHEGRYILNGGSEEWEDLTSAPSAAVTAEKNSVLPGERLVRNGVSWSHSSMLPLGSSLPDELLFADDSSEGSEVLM
Experimental: as §1

EPHA2 = EPHA2 (Homo sapiens, UniProt P29317); assay: HotSpot Kinase Assay, EPHA2
KDR/VEGFR2 = KDR/VEGFR2 (Homo sapiens, UniProt P35968); assay: HotSpot Kinase Assay, KDR/VEGFR2
Experimental: as §1

c-Kit = c-Kit (Homo sapiens, UniProt P10721); assay: HotSpot Kinase Assay, c-Kit
FMS = FMS (Homo sapiens, UniProt P07333); assay: HotSpot Kinase Assay, FMS
AXL = molecular target: T3, AXL (Homo sapiens, UniProt P30530); assay: HotSpot Kinase Assay, AXL
T3 sequence (P30530 26-894): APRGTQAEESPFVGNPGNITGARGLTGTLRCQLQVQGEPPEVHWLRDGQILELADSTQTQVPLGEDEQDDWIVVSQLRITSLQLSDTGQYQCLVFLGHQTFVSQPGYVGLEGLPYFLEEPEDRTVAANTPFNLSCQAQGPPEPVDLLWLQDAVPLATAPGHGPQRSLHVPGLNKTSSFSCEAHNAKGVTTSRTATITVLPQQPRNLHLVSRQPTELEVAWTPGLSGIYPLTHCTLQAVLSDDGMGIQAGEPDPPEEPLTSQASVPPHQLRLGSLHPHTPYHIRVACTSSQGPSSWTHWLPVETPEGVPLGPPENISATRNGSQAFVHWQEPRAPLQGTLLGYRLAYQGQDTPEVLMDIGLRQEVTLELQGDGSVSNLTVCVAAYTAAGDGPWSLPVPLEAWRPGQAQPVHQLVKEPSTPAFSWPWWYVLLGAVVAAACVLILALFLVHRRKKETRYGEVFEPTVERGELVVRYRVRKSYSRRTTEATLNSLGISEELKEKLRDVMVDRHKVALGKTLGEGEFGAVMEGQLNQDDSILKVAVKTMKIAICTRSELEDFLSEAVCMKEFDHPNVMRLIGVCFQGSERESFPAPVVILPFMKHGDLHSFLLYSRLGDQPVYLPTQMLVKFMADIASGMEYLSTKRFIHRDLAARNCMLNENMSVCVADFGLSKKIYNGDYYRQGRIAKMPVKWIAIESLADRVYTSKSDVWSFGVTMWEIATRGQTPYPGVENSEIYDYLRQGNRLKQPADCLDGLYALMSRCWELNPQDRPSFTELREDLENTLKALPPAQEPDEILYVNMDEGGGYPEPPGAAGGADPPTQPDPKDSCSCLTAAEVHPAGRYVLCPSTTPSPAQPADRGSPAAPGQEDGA
Experimental: as §1

Measured: IC50

Chain of DDR1 (Q08345 19-913): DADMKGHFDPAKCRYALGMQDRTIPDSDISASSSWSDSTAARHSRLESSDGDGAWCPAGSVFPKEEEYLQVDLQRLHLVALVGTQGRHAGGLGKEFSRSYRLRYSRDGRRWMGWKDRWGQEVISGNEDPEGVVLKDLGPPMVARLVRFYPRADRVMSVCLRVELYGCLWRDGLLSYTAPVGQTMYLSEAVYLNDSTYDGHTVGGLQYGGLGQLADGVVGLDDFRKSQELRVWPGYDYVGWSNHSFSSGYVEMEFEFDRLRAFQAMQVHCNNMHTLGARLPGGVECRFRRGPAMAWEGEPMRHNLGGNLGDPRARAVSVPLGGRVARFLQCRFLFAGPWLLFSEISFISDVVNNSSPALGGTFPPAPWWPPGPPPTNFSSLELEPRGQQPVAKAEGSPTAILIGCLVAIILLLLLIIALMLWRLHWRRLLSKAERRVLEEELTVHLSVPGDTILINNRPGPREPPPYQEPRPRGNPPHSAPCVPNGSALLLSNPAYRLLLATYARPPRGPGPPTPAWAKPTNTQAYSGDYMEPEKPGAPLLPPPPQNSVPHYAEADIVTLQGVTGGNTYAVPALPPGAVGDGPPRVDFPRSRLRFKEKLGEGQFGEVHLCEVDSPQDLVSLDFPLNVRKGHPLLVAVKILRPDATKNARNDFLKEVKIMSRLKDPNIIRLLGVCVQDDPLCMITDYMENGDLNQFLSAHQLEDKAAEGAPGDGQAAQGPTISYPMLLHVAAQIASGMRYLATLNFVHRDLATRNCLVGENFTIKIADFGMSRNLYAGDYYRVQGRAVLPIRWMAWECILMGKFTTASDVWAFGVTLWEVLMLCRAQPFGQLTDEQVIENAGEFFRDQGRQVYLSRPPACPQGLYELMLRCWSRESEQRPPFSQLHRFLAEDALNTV
Chain of EPHA2 (P29317 24-976): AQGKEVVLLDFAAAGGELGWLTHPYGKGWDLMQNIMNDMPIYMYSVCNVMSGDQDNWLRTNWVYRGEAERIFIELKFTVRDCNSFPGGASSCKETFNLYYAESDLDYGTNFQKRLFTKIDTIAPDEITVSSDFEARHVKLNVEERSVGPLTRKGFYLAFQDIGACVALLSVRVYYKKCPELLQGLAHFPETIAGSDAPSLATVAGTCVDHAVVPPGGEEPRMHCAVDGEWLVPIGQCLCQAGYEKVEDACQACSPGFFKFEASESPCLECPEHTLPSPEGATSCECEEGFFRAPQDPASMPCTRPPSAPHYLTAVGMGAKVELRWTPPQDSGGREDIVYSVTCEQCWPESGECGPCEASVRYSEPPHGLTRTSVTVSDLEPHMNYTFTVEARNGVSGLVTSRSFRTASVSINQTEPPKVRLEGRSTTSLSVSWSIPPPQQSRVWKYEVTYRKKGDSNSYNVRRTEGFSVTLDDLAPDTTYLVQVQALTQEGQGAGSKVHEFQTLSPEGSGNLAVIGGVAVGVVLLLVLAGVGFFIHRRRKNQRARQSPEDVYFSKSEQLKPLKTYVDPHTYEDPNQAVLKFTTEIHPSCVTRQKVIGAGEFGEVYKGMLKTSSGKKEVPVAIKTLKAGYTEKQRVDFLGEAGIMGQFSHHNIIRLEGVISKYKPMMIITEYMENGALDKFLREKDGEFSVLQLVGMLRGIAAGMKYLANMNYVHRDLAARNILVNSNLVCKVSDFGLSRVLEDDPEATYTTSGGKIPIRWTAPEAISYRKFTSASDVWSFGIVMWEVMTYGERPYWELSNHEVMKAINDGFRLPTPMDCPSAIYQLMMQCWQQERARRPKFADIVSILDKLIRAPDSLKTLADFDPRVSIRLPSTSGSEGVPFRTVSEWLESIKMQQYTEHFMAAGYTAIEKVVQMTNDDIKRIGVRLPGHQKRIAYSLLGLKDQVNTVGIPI
Chain of LOK/STK10 (O94804 whole entry): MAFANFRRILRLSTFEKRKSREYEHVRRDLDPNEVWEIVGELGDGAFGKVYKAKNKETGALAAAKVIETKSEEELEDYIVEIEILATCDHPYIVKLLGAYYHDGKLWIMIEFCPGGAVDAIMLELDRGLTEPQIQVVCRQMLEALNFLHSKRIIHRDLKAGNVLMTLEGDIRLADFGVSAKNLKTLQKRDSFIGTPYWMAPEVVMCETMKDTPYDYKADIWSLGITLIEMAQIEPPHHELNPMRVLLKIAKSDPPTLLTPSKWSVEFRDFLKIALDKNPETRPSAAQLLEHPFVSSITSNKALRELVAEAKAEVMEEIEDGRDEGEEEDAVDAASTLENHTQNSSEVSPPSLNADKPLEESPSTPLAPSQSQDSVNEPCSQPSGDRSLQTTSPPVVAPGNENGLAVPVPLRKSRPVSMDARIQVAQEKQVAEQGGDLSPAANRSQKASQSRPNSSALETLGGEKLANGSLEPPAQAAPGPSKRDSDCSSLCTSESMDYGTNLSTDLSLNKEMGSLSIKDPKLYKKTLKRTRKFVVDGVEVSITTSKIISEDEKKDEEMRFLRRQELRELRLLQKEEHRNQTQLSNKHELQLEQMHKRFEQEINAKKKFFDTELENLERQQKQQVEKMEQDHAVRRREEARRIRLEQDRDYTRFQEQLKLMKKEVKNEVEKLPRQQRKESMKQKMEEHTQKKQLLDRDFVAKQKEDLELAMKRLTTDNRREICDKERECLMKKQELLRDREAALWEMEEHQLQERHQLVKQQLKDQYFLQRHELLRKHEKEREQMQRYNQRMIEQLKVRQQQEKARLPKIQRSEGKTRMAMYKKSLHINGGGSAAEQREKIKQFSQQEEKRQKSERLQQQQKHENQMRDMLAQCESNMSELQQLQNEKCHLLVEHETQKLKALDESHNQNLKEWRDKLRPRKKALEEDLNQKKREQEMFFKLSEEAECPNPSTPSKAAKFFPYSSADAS
Chain of c-MET (P08581 25-1390): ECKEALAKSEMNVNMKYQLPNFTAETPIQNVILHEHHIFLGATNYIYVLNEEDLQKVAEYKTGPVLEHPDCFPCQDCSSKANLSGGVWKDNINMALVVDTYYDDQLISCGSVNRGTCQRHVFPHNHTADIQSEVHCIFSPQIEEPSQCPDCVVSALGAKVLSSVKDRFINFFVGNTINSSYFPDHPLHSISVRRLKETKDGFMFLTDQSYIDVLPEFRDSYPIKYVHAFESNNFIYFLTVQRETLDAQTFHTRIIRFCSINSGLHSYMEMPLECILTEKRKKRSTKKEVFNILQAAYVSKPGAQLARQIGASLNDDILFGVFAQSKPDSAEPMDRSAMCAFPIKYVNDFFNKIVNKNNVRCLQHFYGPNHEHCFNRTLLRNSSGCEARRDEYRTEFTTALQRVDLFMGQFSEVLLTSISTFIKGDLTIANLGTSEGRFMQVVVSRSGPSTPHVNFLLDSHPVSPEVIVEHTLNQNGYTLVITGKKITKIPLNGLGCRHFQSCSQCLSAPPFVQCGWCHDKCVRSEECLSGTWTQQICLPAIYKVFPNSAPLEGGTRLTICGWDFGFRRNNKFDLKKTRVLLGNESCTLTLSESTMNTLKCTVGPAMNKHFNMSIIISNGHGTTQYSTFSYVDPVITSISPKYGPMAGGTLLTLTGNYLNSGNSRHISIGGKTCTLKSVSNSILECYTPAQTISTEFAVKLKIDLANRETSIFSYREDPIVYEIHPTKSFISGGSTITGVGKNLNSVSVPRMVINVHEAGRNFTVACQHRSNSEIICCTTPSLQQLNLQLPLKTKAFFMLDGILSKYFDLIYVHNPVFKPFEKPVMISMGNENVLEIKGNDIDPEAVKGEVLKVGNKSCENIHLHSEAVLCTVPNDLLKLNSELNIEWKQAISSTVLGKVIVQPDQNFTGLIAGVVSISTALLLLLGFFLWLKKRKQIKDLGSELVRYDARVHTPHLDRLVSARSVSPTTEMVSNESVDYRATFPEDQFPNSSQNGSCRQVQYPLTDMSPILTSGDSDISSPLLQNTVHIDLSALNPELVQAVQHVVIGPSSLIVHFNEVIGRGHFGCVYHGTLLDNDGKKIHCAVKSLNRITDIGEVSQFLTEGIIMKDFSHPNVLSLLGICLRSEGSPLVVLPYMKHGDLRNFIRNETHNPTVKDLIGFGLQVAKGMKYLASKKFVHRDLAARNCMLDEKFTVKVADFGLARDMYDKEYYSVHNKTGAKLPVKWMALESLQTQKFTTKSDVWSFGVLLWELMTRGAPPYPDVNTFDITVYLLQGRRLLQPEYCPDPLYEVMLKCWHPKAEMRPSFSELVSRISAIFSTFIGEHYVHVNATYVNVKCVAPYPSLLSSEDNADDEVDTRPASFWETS

COc1cc2nccc(Oc3ccc(NC(=O)C4(C(=O)Nc5ccc(F)cc5)CC4)cc3)c2cc1OC(=O)N1CCNC[C@H]1C [Compound 7-2]
< 100 nM: all assays above

COc1cc2nccc(Oc3ccc(NC(=O)C4(C(=O)Nc5ccc(F)cc5)CC4)cc3)c2cc1OC(=O)N1CCN(C)C[C@H]1C [Compound 7-3]
100 to 1000 nM: LOK/STK10 | EPHA2
< 100 nM: all other assays above

COc1cc2nccc(Oc3ccc(NC(=O)C4(C(=O)Nc5ccc(F)cc5)CC4)cc3)c2cc1OC(=O)N1[C@H](C)CNC[C@@H]1C [Compound 7-4]
100 to 1000 nM: LOK/STK10 | EPHA2
< 100 nM: all other assays above

COc1cc2nccc(Oc3ccc(NC(=O)C4(C(=O)Nc5ccc(F)cc5)CC4)cc3)c2cc1OC(=O)N1[C@H](C)CN(C)C[C@@H]1C [Compound 7-5]
100 to 1000 nM: LOK/STK10 | EPHA2
< 100 nM: all other assays above

COc1cc2nccc(Oc3ccc(NC(=O)C4(C(=O)Nc5ccc(F)cc5)CC4)cc3)c2cc1OC(=O)N1CCNCC1(C)C [Compound 7-6]
100 to 1000 nM: LOK/STK10 | EPHA2 | FMS
< 100 nM: all other assays above

COc1cc2nccc(Oc3ccc(NC(=O)C4(C(=O)Nc5ccc(F)cc5)CC4)cc3)c2cc1OC(=O)N1CCN(C)CC1(C)C [Compound 7-7]
> 1000 nM: LOK/STK10
100 to 1000 nM: TYRO3/SKY | EPHA2 | KDR/VEGFR2 | FMS
< 100 nM: all other assays above

COc1cc2c(Oc3ccc(NC(=O)C4(C(=O)Nc5ccc(F)cc5)CC4)cc3)ncnc2cc1OC(=O)N1CCNC[C@H]1C [Compound 8-5]
> 1000 nM: LOK/STK10 | EPHA2 | KDR/VEGFR2
< 100 nM: DDR1 | c-Kit
100 to 1000 nM: all other assays above

COc1cc2c(Oc3ccc(NC(=O)C4(C(=O)Nc5ccc(F)cc5)CC4)cc3)ncnc2cc1OC(=O)N1CCN(C)C[C@H]1C [Compound 8-6, 4-(4-(1-((4-fluorophenyl)carbamoyl)cyclopropane-1-carboxamido)phenoxy)-6-methoxyquinazolin-7-yl (R)-2,4-methylpiperazine-1-carboxylate]
> 1000 nM: LOK/STK10 | EPHA2 | KDR/VEGFR2
< 100 nM: DDR1
100 to 1000 nM: all other assays above

COc1cc2c(Oc3ccc(NC(=O)C4(C(=O)Nc5ccc(F)cc5)CC4)cc3F)ncnc2cc1OC(=O)N1CCNC[C@H]1C [Compound 9-5]
< 100 nM: DDR1 | c-MET | AXL
100 to 1000 nM: all other assays above

COc1cc2c(Oc3ccc(NC(=O)C4(C(=O)Nc5ccc(F)cc5)CC4)cc3F)ncnc2cc1OC(=O)N1CCN(C)C[C@H]1C [Compound 9-6, 4-(2-fluoro-4-(1-((4-fluorophenyl)carbamoyl)cyclopropane-1-carboxamido)phenoxy)-6-methoxyquinazolin-7-yl (R)-2,4-methylpiperazine-1-carboxylate]
< 100 nM: DDR1 | c-MET | c-MER | AXL
> 1000 nM: LOK/STK10
100 to 1000 nM: all other assays above

COc1cc2c(Oc3ccc(NC(=O)C4(C(=O)Nc5ccc(F)cc5)CC4)cc3)ccnc2cc1N1CCNC1=O [Compound 10-2]
100 to 1000 nM: TYRO3/SKY | LOK/STK10 | EPHA2 | KDR/VEGFR2
< 100 nM: all other assays above
